Assay results reported in patent publication US10065971B2 (priority 2014, dated 2018).

Target: human σ1 receptor (Homo sapiens, UniProt Q99720)
Assay: biochemical
Set-up: μ and σ1 dual binding: scale not given here
Details: combined class from Ki at human σ1 receptor (A1) and Ki at human μ-opioid receptor (A2); radioligand binding
Experimental: Biological Activity Pharmacological Study Human σ1 Receptor Radioligand Assay
The assay was carried out with 7 μg of membrane suspension, 5 nM of [^3H](+)-pentazocine in either absence or presence of either buffer or 10 μM Haloperidol for total and non-specific binding, respectively. Binding buffer contained Tris-HCl 50 mM at pH 8. Plates were incubated at 37° C. for 120 minutes. After the incubation period, the reaction mix was then transferred to MultiScreen HTS, FC plates (Millipore), filtered and plates were washed 3 times with ice-cold 10 mM Tris-HCL (pH7.4). Filters were dried and counted at approximately 40% efficiency in a MicroBeta scintillation counter (Perkin-Elmer) using EcoScint liquid scintillation cocktail

Chain of human σ1 receptor (Q99720 whole entry): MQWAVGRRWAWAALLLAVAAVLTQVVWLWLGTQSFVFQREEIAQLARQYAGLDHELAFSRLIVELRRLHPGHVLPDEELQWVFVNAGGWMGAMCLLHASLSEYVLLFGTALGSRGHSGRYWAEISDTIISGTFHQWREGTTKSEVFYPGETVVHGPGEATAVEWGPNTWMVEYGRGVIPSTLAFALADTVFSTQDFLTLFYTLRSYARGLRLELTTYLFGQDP

Compound | μ and σ1 dual binding
CC1CN(C(=O)c2ccc(Cl)cn2)CC2(CCN(CCc3csc(N)n3)CC2)O1.Cl (stereo not shown) [Example 102, (9-(2-(2-aminothiazol-4-yl)ethyl)-2-methyl-1-oxa-4,9-diazaspiro[5.5]undecan-4-yl)(5-chloropyridin-2-yl)methanone hydrochloride] | ++
CC1CN(C(=O)c2ccccc2)CC2(CCN(CCc3csc(N)n3)CC2)O1.Cl (stereo not shown) [Example 103, (9-(2-(2-aminothiazol-4-yl)ethyl)-2-methyl-1-oxa-4,9-diazaspiro[5.5]undecan-4-yl)(phenyl)methanone] | ++
CC1CN(C(=O)c2ccccc2)CC2(CCN(CCc3cccc(NC(N)=O)c3)CC2)O1.Cl (stereo not shown) [Example 109, 1-(3-(2-(4-benzoyl-2-methyl-1-oxa-4,9-diazaspiro[5.5]undecan-9-yl)ethyl)phenyl)urea hydrochloride] | ++
CC1CN(C(=O)c2ccccc2)CC2(CCN(CCc3ccccc3NC(N)=O)CC2)O1 (stereo not shown) [Example 110, 1-(2-(2-(4-benzoyl-2-methyl-1-oxa-4,9-diazaspiro[5.5]undecan-9-yl)ethyl)phenyl)urea] | ++
CC(=O)Nc1cccc(CCN2CCC3(CC2)CN(C(=O)c2ccccc2)CCO3)c1 [Example 111, N-(3-(2-(4-benzoyl-1-oxa-4,9-diazaspiro[5.5]undecan-9-yl)ethyl)phenyl)acetamide] | ++
CC(=O)Nc1ccccc1CCN1CCC2(CC1)CN(C(=O)c1ccccc1)CC(C)O2.Cl (stereo not shown) [Example 112, N-(2-(2-(4-benzoyl-2-methyl-1-oxa-4,9-diazaspiro[5.5]undecan-9-yl)ethyl)phenyl)acetamide hydrochloride] | ++
CS(=O)(=O)Nc1cccc(CCN2CCC3(CC2)CN(C(=O)c2ccccc2)CCO3)c1 [Example 114, N-(3-(2-(4-benzoyl-1-oxa-4,9-diazaspiro[5.5]undecan-9-yl)ethyl)phenyl)methanesulfonamide] | ++
CN(C)C(=O)N1CCOC2(CCN(CCc3ccccc3)CC2)C1 [Example 117, N,N-dimethyl-9-phenethyl-1-oxa-4,9-diazaspiro[5.5]undecane-4-carboxamide] | ++
CN(C(=O)N1CCOC2(CCN(CCc3ccccc3)CC2)C1)c1ccccn1.Cl [Example 119, N-methyl-9-phenethyl-N-(pyridin-2-yl)-1-oxa-4,9-diazaspiro[5.5]undecane-4-carboxamide hydrochloride] | ++
C[C@@H]1CN(C(=O)c2ccccn2)CC2(CCN(CCc3ccccc3)CC2)O1.Cl [Example 124, (R)-(2-methyl-9-phenethyl-1-oxa-4,9-diazaspiro[5.5]undecan-4-yl)(pyridin-2-yl)methanone hydrochloride] | ++
COc1cccnc1CCN1CCC2(CC1)CN(C(=O)c1ccccc1F)CC1(CC1)O2 [Example 130, 12-[(2-fluorophenyl)carbonyl]-8-(2-(3-methoxypyridin-2-yl)ethyl)-4-oxa-8,12-diazadispiro[2.1.5.3]tridecane] | ++
N#Cc1ccccc1C(=O)N1CC2(CCN(CCc3ncccc3F)CC2)OC2(CC2)C1 [Example 135, 2-(8-(2-(3-fluoropyridin-2-yl)ethyl)-4-oxa-8,12-diazadispiro[2.1.5.3]tridecane-12-carbonyl)benzonitrile] | ++
C[C@@H]1CN(C(=O)c2ccccc2F)CC2(CCN(CCc3ncccc3F)CC2)O1 [Example 143, (R)-(2-fluorophenyl)(9-(2-(3-fluoropyridin-2-yl)ethyl)-2-methyl-1-oxa-4,9-diazaspiro[5.5]undecan-4-yl)methanone] | ++
C[C@H]1CN(C(=O)c2ccccc2F)CC2(CCN(CCc3ncccc3F)CC2)O1 [Example 144, (S)-(2-fluorophenyl)(9-(2-(3-fluoropyridin-2-yl)ethyl)-2-methyl-1-oxa-4,9-diazaspiro[5.5]undecan-4-yl)methanone] | ++
C[C@@H]1CN(C(=O)c2c(F)cccc2F)CC2(CCN(CCc3ncccc3F)CC2)O1 [Example 145, (R)-(2,6-difluorophenyl)(9-(2-(3-fluoropyridin-2-yl)ethyl)-2-methyl-1-oxa-4,9-diazaspiro[5.5]undecan-4-yl)methanone] | ++
C[C@H]1CN(C(=O)c2c(F)cccc2F)CC2(CCN(CCc3ncccc3F)CC2)O1 [Example 146, (S)-(2,6-difluorophenyl)(9-(2-(3-fluoropyridin-2-yl)ethyl)-2-methyl-1-oxa-4,9-diazaspiro[5.5]undecan-4-yl)methanone] | ++

Same assay, conditions: combined class from Ki at human σ1 receptor (A1) and Ki at human μ-opioid receptor (A2); radioligand binding; read-out: μ and σ1 dual binding

Compound | Ki [nM]
Nc1cccc(CCN2CCC3(CC2)CN(C(=O)c2ccccc2)CCO3)c1 [Example 104, (9-(3-aminophenethyl)-1-oxa-4,9-diazaspiro[5.5]undecan-4-yl)(phenyl)methanone] | > 500
O=C(Nc1cccnc1)N1CCOC2(CCN(CCc3ccccc3)CC2)C1 [Example 121, 9-phenethyl-N-(pyridin-3-yl)-1-oxa-4,9-diazaspiro[5.5]undecane-4-carboxamide] | > 500
COC(=O)CCN1CCC2(CC1)CN(C(=O)c1c(F)cccc1F)CC1(CC1)O2 [Example 140, methyl 3-(12-(2,6-difluorobenzoyl)-4-oxa-8,12-diazadispiro[2.1.5.3]tridecan-8-yl)propanoate] | > 500
CC1CN(C(=O)c2cccc(F)c2F)CC2(CCN(CCc3ncccc3F)CC2)O1 (stereo not shown) [Example 147, (2,3-difluorophenyl)(9-(2-(3-fluoropyridin-2-yl)ethyl)-2-methyl-1-oxa-4,9-diazaspiro[5.5]undecan-4-yl)methanone] | > 500
CC1CN(C(=O)c2ccc(F)cc2F)CC2(CCN(CCc3ncccc3F)CC2)O1 (stereo not shown) [Example 148, (2,4-difluorophenyl)(9-(2-(3-fluoropyridin-2-yl)ethyl)-2-methyl-1-oxa-4,9-diazaspiro[5.5]undecan-4-yl)methanone] | > 500
CC1CN(C(=O)c2cccc(F)c2)CC2(CCN(CCc3ncccc3F)CC2)O1 (stereo not shown) [Example 151, (3-fluorophenyl)(9-(2-(3-fluoropyridin-2-yl)ethyl)-2-methyl-1-oxa-4,9-diazaspiro[5.5]undecan-4-yl)methanone] | > 500
